Results published in patent EP0005055A2, “6,11-Dihydrodibenzo-thiepin-11-ones and their S-oxides, methods for their preparation and pharmaceutical compositions containing them” (SYNTEX (U.S.A.) INC., priority 1978, dated 1979).

What was measured:
[1] = Mouse Acute Oral Toxicity (LD50); conditions: in vivo, oral by stomach tube, single dose, mice observed for deaths over 14 days
Procedure: B) Mouse Acute Oral Toxicity (LD50)
Protocol: The test material is suspended in an aqueous vehicle containing carboxymethyl cellulose. A volume of 10 ml/kg body weight is used for each dose. The test material is given orally by stomach tube to 24 male Swiss-Webster mice, 6 per group, on the first day of the test, using doses of 250, 500, 1000 and 2000 mg./kg. body weight of test compound. Another group of 6 mice, receiving the vehicle only, serve as the control. The mice are observed for deaths over a 14-day period.

Albino rats = experiment: Heat Induced Dermal Trauma Assay; assay type: in vivo; conditions: topical in ethanol, treatment 0 post burn, skin disc weighed 3 hours later, 6 rats, control 500.7±13.6
Procedure: A) Heat Induced Dermal Trauma Assay ,
Test Animal: Albino rats, 120-140 g.
Procedure: The ventral area of the rats is shaved and depilated with a commercially available depilatory on the afternoon of the day prior to trauma. (The depilatory is applied for 15 minutes and then removed by washing with water.) The following day, a 25 mm diameter circle is traced on the abdomen beneath the sternum with a colored pen. A brass stamp of the same size, through which hot water (53°C) is circulated, is firmly applied to the center of the colored outline for 45 seconds while the rats are lightly anesthetized with ether. The test materials in ethanol are administered topically to the tramatized area immediately after withdrawing the stamp. The animals are sacrificed 3 hours later, at which time the ventral skin is removed and a piece of skin form the center of the marked area is punched out with a No. 10 cork bore and weighed.
End Point: The weight in mg of the inflammed piece of skin which is removed from the marked area with the cork bore.

| Compound | LD50 at 336 h [1] [mg/kg] | Mean Disc. Wt. mg.± S.E. (Albino rats; dose 0.006 mg.) [mg] | Mean Disc. Wt. mg.± S.E. (Albino rats; dose 0.025 mg.) [mg] | Mean Disc. Wt. mg.± S.E. (Albino rats; dose 0.1 mg.) [mg] | Mean Disc. Wt. mg.± S.E. (Albino rats; dose 0.4 mg.) [mg] |
| --- | --- | --- | --- | --- | --- |
| O=C(O)Cc1ccc2c(c1)SCc1cc(Cl)ccc1C2=O [8-chloro-6,11-dihydrodibenzo-[b.e.]-thiepin-11-one-3-acetic acid] | ~300 | 296.8 ± 21.8 | 218.8 ± 6.5 | 201.4 ± 12.0 | 147.2 ± 10.2 |
| O=C(O)Cc1ccc2c(c1)[S+]([O-])Cc1ccccc1C2=O (stereo not shown) [6,11-dihydrodibenzo-[b.e]-thiepin-11-one-3-acetic S-oxide] | > 2000 |  |  |  |  |
| COc1ccc2c(c1)CSc1cc(CC(=O)O)ccc1C2=O [8-methoxy-6,11-dihydro-dibenzo-[b.e.]-thiepin-11-one-3-acetic acid] |  | 279.6 ± 13.17 | 241.6 ± 7.56 | 197.5 ± 25.07 | 177.9 ± 18.98 |
